# Patent publication US9388162B2, “Substituted morphinans and the use thereof” (Purdue Pharma L.P., priority 2012, dated 2016)
# Legend:
# μ-opioid receptors = μ-opioid receptors (Homo sapiens (Human), UniProt P35372); test: μ-opioid receptor [35S]GTPγS functional assay, U-2 OS cells; type: biochemical; conditions: μ GTP; for EC50: read-out: Activity Response μ EC50 (nM) [mean ± SEM]; for Emax: read-out: Activity Response μ Emax (%)
# Protocol: [^35S]GTPγS functional assays were conducted using freshly thawed μ-receptor membranes prepared from a cell line expressing recombinant μ opioid receptor in a HEK-293, CHO or U-2 OS cell background or purchased from a commercial source (Perkin Elmer, Shelton, Conn.; or DiscovRx, Fremont, Calif.). Assay reactions were prepared by sequentially adding the following reagents to binding buffer (100 mM NaCl, 10 mM MgCl2, 20 mM HEPES, pH 7.4) on ice (final concentrations indicated): membrane protein (0.026 mg/mL), saponin ([…]), GDP ([…]) and [^35S]GTPγS (0.20 nM; Perkin Elmer, Shelton, Conn.). The prepared membrane solution (190 μl/well) was transferred to 96-shallow well polypropylene plates containing 10 μl of 20× concentrated stock solutions of the agonist [D-Ala^2, N-methyl-Phe^4 Gly-ol^5]-enkephalin (DAMGO) prepared in dimethyl sulfoxide (DMSO). Plates were incubated for 30 min at about 25° C. with shaking. Reactions were terminated by rapid filtration onto 96-well Unifilter GF/B filter plates (Perkin Elmer, Shelton, Conn.) using a 96-well tissue harvester (Perkin Elmer, Shelton, Conn.) followed by three filtration washes with 200 μl of ice-cold wash buffer (10 mM NaH2PO4, 10 mM Na2HPO4, pH 7.4). Filter plates were subsequently dried at 50° C. for 2-3 hours. BetaScint scintillation cocktail (Perkin Elmer, Shelton, Conn.) was added (50 μl/well) and plates were counted using a Packard Top-Count for 1 min/well. Data were analyzed using the sigmoidal dose-response curve fitting functions in GraphPad PRISM v. 3.0, or an in-house function for non-linear, sigmoidal dose-response curve-fitting.
# μ GTP EC50 is the concentration of a compound providing 50% of the maximal response for the compound at a μ-opioid receptor.
# μ GTP Emax (%) is the maximal effect elicited by a compound relative to the effect elicited by DAMGO, a standard μ agonist. Generally, the μ GTP Emax (%) value measures the efficacy of a compound to treat or prevent pain or other Conditions.
# (§1) The following tables provide results on the efficacy of binding and activity response of exemplified Compounds of the Invention at the μ- and κ-opioid receptors. In TABLE 3, binding affinity of certain Compounds of the Invention to the μ- and κ-opioid receptors was determined as described above. In TABLE 4, activity response of certain Compounds of the Invention to the μ- and κ-opioid receptors was determined as described above for functional assays using HEK-293 cells. In TABLE 5, activity response of certain Compounds of the Invention to the μ- and κ-opioid receptors was determined as described above using U-2 OS cells.
# κ opioid receptor = κ opioid receptor (Homo sapiens (Human), UniProt P41145); test: κ-opioid receptor [35S]GTPγS functional assay, U-2 OS cells; type: biochemical; conditions: κ GTP; for EC50: read-out: Activity Response κ EC50 (nM) [mean ± SEM]; for Emax: relative to U69,593, read-out: Activity Response κ Emax (%)
# Protocol: Membranes from HEK-293 cells, CHO or U-2 OS cells expressing the recombinant human kappa opioid receptor (κ) were prepared by lysing cells in ice cold hypotonic buffer (2.5 mM MgCl2, 50 mM HEPES, pH 7.4) (10 mL/10 cm dish) followed by homogenization with a tissue grinder/Teflon pestle. Membranes were collected by centrifugation at 30,000×g for 15 min at 4° C. and pellets were resuspended in hypotonic buffer to a final concentration of 1-3 mg/mL. Protein concentrations were determined using the BioRad protein assay reagent with bovine serum albumen as standard. Aliquots of κ receptor membranes were stored at −80° C.
# Functional [^35S]GTPγS binding assays were conducted as follows. κ opioid receptor membrane solution was prepared by sequentially adding final concentrations of 0.026 μg/μl κ membrane protein (in-house), 10 μg/mL saponin, 3 μM GDP and 0.20 nM [^35S]GTPγS to binding buffer (100 mM NaCl, 10 mM MgCl2, 20 mM HEPES, pH 7.4) on ice. The prepared membrane solution (190 μl/well) was transferred to 96-shallow well polypropylene plates containing 10 μl of 20× concentrated stock solutions of agonist prepared in DMSO. Plates were incubated for 30 min at a temperature of about 25° C. with shaking. Reactions were terminated by rapid filtration onto 96-well Unifilter GF/B filter plates (Perkin Elmer, Shelton, Conn.) using a 96-well tissue harvester (Packard) and followed by three filtration washes with 200 μl ice-cold binding buffer (10 mM NaH2PO4, 10 mM Na2HPO4, pH 7.4). Filter plates were subsequently dried at 50° C. for 2-3 hours. Fifty μl/well scintillation cocktail (Perkin Elmer, Shelton, Conn.) was added and plates were counted in a Packard Top-Count for 1 min/well.
# κ GTP EC50 is the concentration of a compound providing 50% of the maximal response for the compound at a κ receptor.
# κ GTP Emax (%) is the maximal effect elicited by a compound relative to the effect elicited by U69,593.
# as §1, with “In” for “The following tables provide results on the efficacy of binding and activity response of exemplified Compounds of the Invention at the μ- and κ-opioid receptors. In”
Compound,EC50 (μ-opioid receptors) [nM],Activity Response μ Emax (%) (μ-opioid receptors; relative to DAMGO),EC50 (κ opioid receptor) [nM],"Activity Response κ Emax (%) (κ opioid receptor; relative to U69,593)",Emax (μ-opioid receptors; relative to DAMGO) [%],Emax (κ opioid receptor) [%]
"COc1ccc2c(c1)[C@]13CCN(CC4CC4)[C@H](C2)[C@]1(O)C[C@H](OCC(C)C)C(=O)C3 [Compound 23, (4bR,7S,8aS,9R)-11-(cyclopropylmethyl)-8a-hydroxy-7-isobutoxy-3-methoxy-8,8a,9,10-tetrahydro-5H-9,4b-(epiminoethano)phenanthren-6(7H)-one]",2100 ± 735,15.7 ± 3.71,5560 ± 481,90.0 ± 1.00,,
"COc1ccc2c(c1)[C@]13CCN(CC4CC4)[C@H](C2)[C@]1(O)C[C@H](O)C(=O)C3 [Compound 25, (4bR,7S,8aS,9R)-11-(cyclopropylmethyl)-7,8a-dihydroxy-3-methoxy-8,8a,9,10-tetrahydro-5H-9,4b-(epiminoethano)phenanthren-6(7H)-one]",578 ± 91.8,,876 ± 18.8,,36 ± 3.51,106 ± 3.28
"COc1ccc2c(c1)[C@]13CCN(CC4CC4)[C@H](C2)[C@]1(O)C[C@H](NC(=O)C(C)C)C(=O)C3 [Compound 26, N-((4bR,7S,8aS,9R)-11-(cyclopropylmethyl)-8a-hydroxy-3-methoxy-6-oxo-6,7,8,8a,9,10-hexahydro-5H-9,4b-(epiminoethano)phenanthren-7-yl)isobutyramide]",7110 ± 633,,7210 ± 438,,31 ± 2.08,104 ± 2.52
"CC(C)C(=O)N[C@H]1C[C@@]2(O)[C@H]3Cc4ccc(O)cc4[C@@]2(CCN3CC2CC2)CC1=O [Compound 27, N-((4bR,7S,8aS,9R)-11-(cyclopropylmethyl)-3,8a-dihydroxy-6-oxo-6,7,8,8a,9,10-hexahydro-5H-9,4b-(epiminoethano)phenanthren-7-yl)isobutyramide]",> 200000,,24.7 ± 3.18,,8 ± 2.12,92.7 ± 3.18
"CC(=O)N[C@H]1C[C@@]2(O)[C@H]3Cc4ccc(O)cc4[C@@]2(CCN3CC2CC2)CC1=O [Compound 28, N-((4bR,7S,8aS,9R)-11-(cyclopropylmethyl)-3,8a-dihydroxy-6-oxo-6,7,8,8a,9,10-hexahydro-5H-9,4b-(epiminoethano)phenanthren-7-yl)acetamide]",> 200000,,27.1 ± 3.29,,2.5,86.7 ± 2.4
"CCC(=O)N[C@H]1C[C@@]2(O)[C@H]3Cc4ccc(O)cc4[C@@]2(CCN3CC2CC2)CC1=O [Compound 29, N-((4bR,7S,8aS,9R)-11-(cyclopropylmethyl)-3,8a-dihydroxy-6-oxo-6,7,8,8a,9,10-hexahydro-5H-9,4b-(epiminoethano)phenanthren-7-yl)propionamide]",> 200000,,14.6 ± 1.86,,7.25 ± 1.89,98.7 ± 5.21
"CC(C)CCC(=O)N[C@H]1C[C@@]2(O)[C@H]3Cc4ccc(O)cc4[C@@]2(CCN3CC2CC2)CC1=O [Compound 30, N-((4bR,7S,8aS,9R)-11-(cyclopropylmethyl)-3,8a-dihydroxy-6-oxo-6,7,8,8a,9,10-hexahydro-5H-9,4b-(epiminoethano)phenanthren-7-yl)-4-methylpentanamide]",9.61 ± 0.83,,1.61 ± 0.12,,51 ± 2.65,97.7 ± 3.18
"CC(C)CCCC(=O)N[C@H]1C[C@@]2(O)[C@H]3Cc4ccc(O)cc4[C@@]2(CCN3CC2CC2)CC1=O [Compound 31, N-((4bR,7S,8aS,9R)-11-(cyclopropylmethyl)-3,8a-dihydroxy-6-oxo-6,7,8,8a,9,10-hexahydro-5H-9,4b-(epiminoethano)phenanthren-7-yl)-5-methylhexanamide]",9.65 ± 0.22,,2.59 ± 0.14,,73.7 ± 2.6,90.7 ± 6.57
"COc1ccc2c(c1)[C@]13CCN(C)[C@H](C2)[C@]1(O)C[C@H](CC(=O)O)C(=O)C3 [Compound 60, 2-((4bR,7R,8aS,9R)-8a-hydroxy-3-methoxy-11-methyl-6-oxo-6,7,8,8a,9,10-hexahydro-5H-9,4b-(epiminoethano)phenanthren-7-yl)acetic acid]",,,14900 ± 1320,,,84.3 ± 0.67
